# Earlier results in publication PMC5238771 (OncoTargets and therapy, 2017).
# Tests used:
# [1] = tested on: CYP3A4 enzyme; conditions: both in vitro and in vivo
# [2] = tested on: SMMC-7721 human hepatocellular carcinoma cell line; conditions: SMMC-7721 cells, dose-dependent and time-dependent
# [3] = tested on: HepG2 human hepatocellular carcinoma cell line; conditions: HepG2 cells, dose-dependent and time-dependent
smiles,measurement,setting,value
C[C@]12CC[C@H](O)C[C@H]1CC[C@@H]1[C@@H]2CC[C@]2(C)[C@@H](c3ccc(=O)oc3)CC[C@]12O [bufalin],Inhibition of CYP3A4 enzyme,[1],modest but significant inhibition
same,Inhibition of proliferation,[2],inhibited the proliferation
same,Inhibition of proliferation,[3],inhibited the proliferation
